Common to all, as to type: biochemical
Assay [1] has as its target T1, human Akt1 kinase (kinase domain residues R144-A480, activated with PDK1) (Homo sapiens, UniProt P31749).
T1 construct: made in house
Nature of the assay: Akt1 kinase assay, Luciferase-Coupled Chemiluminescent Kinase assay (LCCA). As to conditions: 1 μM ATP, 1.3 nM Akt1; read-out: Akt-1 inhibition IC50. The gist of the method:
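Baculovirus-expressed PDK1-activated Akt1 kinase domain (R144-A480), 1.3 nM, with 5 μM crosstide and 1 μM ATP in Tris pH 7.5 with MgCl2/MnCl2, 3 h at ambient temperature. Remaining ATP read by luciferase-luciferin chemiluminescence; 10-point IC50 from four-parameter fit.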

Assay [2] deals with T2, human Akt2 kinase (kinase domain residues K146-R480) (Homo sapiens, UniProt P31751).
T2 construct: human Akt2 kinase domain residues K146-R480; made in house
Nature of the assay: Akt2 kinase assay, Luciferase-Coupled Chemiluminescent Kinase assay (LCCA). The following applies: 2 μM ATP, 10 nM Akt2; read-out: Akt-2 inhibition IC50. The method, then: Kinase activity and compound inhibition are investigated using one or more of the three assay formats described below. The ATP concentrations for each assay are selected to be close to the Michaelis-Menten constant (KM) for each individual kinase. Dose-response experiments are performed at 10 different inhibitor concentrations in a 384-well plate format. The data are fitted to four-parameter equation (2) below; where Y is the observed signal, X is the inhibitor concentration, Min is the background signal in the absence of enzyme (0% enzyme activity), Max is the signal in the absence of inhibitor (100% enzyme activity), IC50 is the inhibitor concentration at 50% enzyme inhibition and H represents the empirical Hill's slope to measure the cooperativity. Typically H is close to unity. Y=Min+(Max−Min)/(1+(X/IC50)^H) Equation (2) p70S6 Kinase Assay
Biochemical activity of Akt2 kinase was assessed using a Luciferase-Coupled Chemiluminescent Kinase assay (LCCA) format. Kinase activity was measured as the percent ATP remaining following the kinase reaction. Remaining ATP was detected by luciferase-luciferin-coupled chemiluminescence. Specifically, the reaction was initiated by mixing test compounds, 2 μM ATP, 5 μM crosstide peptide and 10 nM Akt2 (baculovirus expressed human Akt2 kinase domain residues K146-R480) in a 20 uL assay buffer (20 mM Tris-HCL pH 7.5, 10 mM MgCl2, 0.03% Triton X-100, 1 mM DTT, 3 mM MnCl2). The mixture is incubated at ambient temperature for 2 hours after which 20 μL luciferase-luciferin mix is added and the chemiluminescent signal read using a Wallac Victor2 reader. The luciferase-luciferin mix consists of 50 mM HEPES, pH 7.8, 8.5 μg/mL oxalic acid (pH 7.8), 5 (or 50) mM DTT, 0.4% Triton X-100, 0.25 mg/mL coenzyme A, 63 uM AMP, 28 μg/mL luciferin and 40,000 units/mL luciferase.

For assay [3], the target named is T3, human p70S6 kinase (p70S6K, kinase domain residues 1-421, T412E mutation) (Homo sapiens, UniProt P23443, T412E).
T3 construct: human p70S6 kinase domainresidues 1-421, containing a T412E mutation; made in house
Nature of the assay: p70S6 kinase assay, Luciferase-Coupled Chemiluminescent Kinase assay (LCCA). The following applies: 5 μM ATP, 12 nM p70S6K; read-out: p70S6K inhibition IC50. The gist of the method: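 Baculovirus-expressed kinase domain (12 nM) reacted 2 h at ambient temperature with 5 μM ATP and 5 μM RRRLSSLRA peptide. Buffer was Tris pH 7.5 with MgCl2, MnCl2, DTT and Triton X-100. Remaining ATP was read by luciferase-luciferin chemiluminescence. IC50 came from 10-point dose-response with a four-parameter Hill fit.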

Some results are limits rather than exact numbers.

T2 sequence (P31751 146-480): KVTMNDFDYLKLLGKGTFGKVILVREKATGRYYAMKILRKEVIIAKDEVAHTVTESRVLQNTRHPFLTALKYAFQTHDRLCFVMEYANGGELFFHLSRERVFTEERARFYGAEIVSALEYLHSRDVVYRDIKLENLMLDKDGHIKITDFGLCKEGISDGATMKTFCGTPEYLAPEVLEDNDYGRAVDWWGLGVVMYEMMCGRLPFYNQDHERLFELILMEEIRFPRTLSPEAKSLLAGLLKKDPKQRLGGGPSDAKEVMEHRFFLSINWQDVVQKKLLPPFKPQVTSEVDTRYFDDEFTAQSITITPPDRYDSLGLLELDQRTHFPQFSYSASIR
T3 sequence (P23443 1-421 T412E): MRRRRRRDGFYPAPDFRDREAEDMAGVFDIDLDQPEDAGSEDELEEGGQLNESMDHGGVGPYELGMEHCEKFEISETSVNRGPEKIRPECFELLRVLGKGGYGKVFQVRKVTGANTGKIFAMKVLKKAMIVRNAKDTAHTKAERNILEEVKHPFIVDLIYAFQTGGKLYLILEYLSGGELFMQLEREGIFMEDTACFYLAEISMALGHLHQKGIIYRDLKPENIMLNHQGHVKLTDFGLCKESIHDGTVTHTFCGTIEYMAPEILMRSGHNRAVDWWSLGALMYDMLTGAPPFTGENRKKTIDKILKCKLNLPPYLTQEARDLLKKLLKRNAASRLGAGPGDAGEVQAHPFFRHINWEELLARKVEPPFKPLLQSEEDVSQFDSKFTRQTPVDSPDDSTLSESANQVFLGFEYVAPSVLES
T1 sequence (P31749 144-480): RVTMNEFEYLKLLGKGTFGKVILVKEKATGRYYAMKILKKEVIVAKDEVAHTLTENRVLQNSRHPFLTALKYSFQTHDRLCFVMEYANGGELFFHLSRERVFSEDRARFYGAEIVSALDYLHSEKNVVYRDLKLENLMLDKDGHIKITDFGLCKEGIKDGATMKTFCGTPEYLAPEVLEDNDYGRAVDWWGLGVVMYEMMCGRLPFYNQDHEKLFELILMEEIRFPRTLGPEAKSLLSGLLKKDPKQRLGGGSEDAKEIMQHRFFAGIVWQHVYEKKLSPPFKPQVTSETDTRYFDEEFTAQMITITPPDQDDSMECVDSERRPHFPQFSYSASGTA

In the case of `Brc1n[nH]c2ncnc(N3CCN(CC4CCCCC4)CC3)c12` [Entry 70, 3-bromo-4-[4-(cyclohexylmethyl)piperazin-1-yl]-1H-pyrazolo[3,4-d]pyrimidine], the IC50 (in general, the midpoint of a concentration-inhibition curve) in assay [1] was greater than 2 µM; in assay [2], greater than 2 µM; in assay [3], 0.5 to 2 µM.

`Clc1c2ccccc2c(CN2CCN(c3ncnc4[nH]nc(Br)c34)CC2)c2ccccc12` [Entry 71, 3-bromo-4-{4-[(10-chloroanthracen-9-yl)methyl]piperazin-1-yl}-1H-pyrazolo[3,4-d]pyrimidine]: the IC50 in assay [1] was greater than 2 µM; in assay [2], greater than 2 µM; in assay [3], 0.5 to 2 µM.

On to `Fc1ccc(CN2CCN(c3ncnc4[nH]nc(Br)c34)CC2)c(Cl)c1` [Entry 48, 3-bromo-4-{4-[(2-chloro-4-fluorophenyl)methyl]piperazin-1-yl}-1H-pyrazolo[3,4-d]pyrimidine], for which the IC50 in assay [1] is greater than 2 µM; in assay [2], greater than 2 µM; in assay [3], less than 0.05 µM.

As for `CN(C)c1ccc(CN2CCN(c3ncnc4[nH]nc(Br)c34)CC2)cc1` [Entry 41, 4-{[4-(3-bromo-1H-pyrazolo[3,4-d]pyrimidin-4-yl)piperazin-1-yl]methyl}-N,N-dimethylaniline], the concentration for half-maximal inhibition (IC50) in assay [1] is greater than 2 µM; in assay [2] it was greater than 2 µM; in assay [3], less than 0.05 µM.

Take `COCCCN1CCN(c2ncnc3[nH]nc(Br)c23)CC1` [Entry 76, 3-bromo-4-{4-[3-(methyloxy)propyl]piperazin-1-yl}-1H-pyrazolo[3,4-d]pyrimidine]: the IC50 in assay [1], in assay [2] and in assay [3] was greater than 2 µM throughout.

With `N#Cc1cccc(CN2CCN(c3ncnc4[nH]nc(Br)c34)CC2)c1` [Entry 55, 3-{[4-(3-bromo-1H-pyrazolo[3,4-d]pyrimidin-4-yl)piperazin-1-yl]methyl}benzonitrile], the figures for the IC50 in assay [1], in assay [2] and in assay [3] were greater than 2 µM, greater than 2 µM and 0.05 to 0.5 µM, respectively.

Regarding `O=C(Nc1cccc(C(F)(F)F)c1)N1CCN(c2ncnc3[nH]nc(Br)c23)CC1` [Entry 33, 4-(3-bromo-1H-pyrazolo[3,4-d]pyrimidin-4-yl)-N-[3-(trifluoromethyl)phenyl]piperazine-1-carboxamide], the IC50 in assay [1] was greater than 2 µM; in assay [2] it was greater than 2 µM; in assay [3], less than 0.05 µM.

Consider `Brc1n[nH]c2ncnc(N3CCN(Cc4ccc5c(c4)OCCO5)CC3)c12` [Entry 36, 3-bromo-4-[4-(2,3-dihydro-1,4-benzodioxin-6-ylmethyl)piperazin-1-yl]-1H-pyrazolo[3,4-d]pyrimidine], for which the IC50 in assay [1] was greater than 2 µM; in assay [2], greater than 2 µM; in assay [3], less than 0.05 µM.

For the compound `O=C(c1ccc(Cl)cc1)C1CCN(c2ncnc3[nH]nc(Br)c23)CC1` [Entry 38, [1-(3-bromo-1H-pyrazolo[3,4-d]pyrimidin-4-yl)piperidin-4-yl](4-chlorophenyl)methanone], the IC50 in assay [1] is 0.5 to 2 µM; in assay [2] it was greater than 2 µM; in assay [3], less than 0.05 µM.

`Brc1n[nH]c2ncnc(N3CCN(Cc4cccc(OCc5ccccc5)c4)CC3)c12` [Entry 62, 3-bromo-4-[4-({3-[(phenylmethyl)oxy]phenyl}methyl)piperazin-1-yl]-1H-pyrazolo[3,4-d]pyrimidine]: the IC50 in assay [1] is greater than 2 µM; in assay [2], greater than 2 µM; in assay [3], 0.05 to 0.5 µM.

For the compound `CC(C)(C)c1ccc(CN2CCN(c3ncnc4[nH]nc(Br)c34)CC2)cc1` [Entry 7, 3-bromo-4-(4-{[4-(1,1-dimethylethyl)phenyl]methyl}piperazin-1-yl)-1H-pyrazolo[3,4-d]pyrimidine], the values for the IC50 in assay [1], in assay [2] and in assay [3] were greater than 2 µM, greater than 2 µM and less than 0.05 µM, respectively.

As to `COc1cc(OC)nc(CN2CCN(c3ncnc4[nH]nc(Br)c34)CC2)n1` [Entry 73, 4-(4-{[4,6-bis(methyloxy)pyrimidin-2-yl]methyl}piperazin-1-yl)-3-bromo-1H-pyrazolo[3,4-d]pyrimidine], the IC50 is greater than 2 µM in assay [1], greater than 2 µM in assay [2] and 0.5 to 2 µM in assay [3].

On to `Cc1cccc(CN2CCN(c3ncnc4[nH]nc(Br)c34)CC2)c1` [Entry 54, 3-bromo-4-{4-[(3-methylphenyl)methyl]piperazin-1-yl}-1H-pyrazolo[3,4-d]pyrimidine], for which the IC50 in assay [1] is greater than 2 µM; in assay [2] it was greater than 2 µM; in assay [3] it was 0.05 to 0.5 µM.

As for `O=C(/C=C/c1ccccc1)N1CCN(c2ncnc3[nH]nc(Br)c23)CC1` [Entry 43, 3-bromo-4-{4-[(2E)-3-phenylprop-2-enoyl]piperazin-1-yl}-1H-pyrazolo[3,4-d]pyrimidine], the half-inhibitory concentration (IC50) in assay [1] is greater than 2 µM; in assay [2], greater than 2 µM; in assay [3] it was less than 0.05 µM.

For the compound `CC(c1ccccc1)N1CCN(c2ncnc3[nH]nc(Br)c23)CC1` (stereo not drawn) [Entry 57, 3-bromo-4-[4-(1-phenylethyl)piperazin-1-yl]-1H-pyrazolo[3,4-d]pyrimidine], the results for the 50% inhibitory concentration (IC50) in assay [1], in assay [2] and in assay [3] were greater than 2 µM, greater than 2 µM and 0.05 to 0.5 µM, respectively.

`Brc1n[nH]c2ncnc(N3CCN(Cc4ccc(-c5ccccc5)cc4)CC3)c12` [Entry 30, 4-[4-(biphenyl-4-ylmethyl)piperazin-1-yl]-3-bromo-1H-pyrazolo[3,4-d]pyrimidine]: the figures for the 50% inhibitory concentration (IC50) in assay [1], in assay [2] and in assay [3] were greater than 2 µM, greater than 2 µM and less than 0.05 µM, respectively.

The values above are taken from patent US7994172B2, “[1H-pyrazolo[3, 4-D]pyrimidin-4-yl]-piperidine or -piperazine compounds as serine-theoronine kinase modulators (P70s6k, Atk1 and Atk2) for the treatment of immunological, inflammatory and proliferative diseases” (Exelixis, Inc., priority 2004, dated 2011).
